Test: exhalation test (13CO2/12CO2, carbon dioxide gas Δ value) after oral administration to beagle dogs

## O=C([O-])O.[Na+] [sodium hydrogencarbonate solution, sodium hydrogencarbonate]
Male beagle dogs without propantheline, n=4, FIG. 4
  excretion of labeled carbon dioxide gas from the body, in words: rapidly excreted from the body
Male beagle dogs, n=4, control test, 100 mg NaH13CO3, FIG. 4
  time of maximum of the carbon dioxide gas Δ value, in words: immediately after administration

## CC(C)[N+](C)(CCOC(=O)C1c2ccccc2Oc2ccccc21)C(C)C [propantheline]
Beagle dogs given the capsule of Example 8 granules after propantheline, n=4
  excretion of labeled carbon dioxide gas in the exhalation in the group receiving propantheline versus untreated group: slow compared to that seen in the beagle dogs of the untreated group
